For one data set, the system named is NKCC1-KO HEK293 cells. Kind of data set: K+ influx (83Rb uptake) in NKCC1-KO HEK293 cells. The format is cell-based, human. The protocol:
A. Contribution of NKCC1 to K^+ influx in native HEK293 cells under isosmotic (basal) conditions. K^+ influx was measured in untreated cells (Cntr), cells exposed to 100 μM ouabain (ouab), 20 μM bumetanide (bum), or both. B. Signal separation between native HEK293 cells with and without 20 μM bumetanide. Cells were tested in a hypertonic saline and in the presence of 100 μM ouabain. These conditions became our standard conditions for drug testing. C. Absence of bumetanide-sensitive K^+ influx in A-NKCC1 HEK293 cells. Note that the K^+ influx was reduced to basal levels.
NKCC1 expression was eliminated from HEK293 cells using CRISPR/cas9. Cells were transfected with a vector expressing a cas9-EGFP fusion protein and a guide RNA specific to a NKCC1 sequence ([…]; SEQ ID NO: 1) located within exon 1. Two days post transfection, cells were FACS sorted and cells expressing EGFP and cas9 (green cells) were plated at 1 cell per well in 96 well plates. Cells were grown to confluence, duplicated, and tested for NKCC1 function using Tl+ (another congener of K^+) and a thallium sensitive fluorescent dye in the presence or absence of bumetanide.

For data set [1] the following is noted: cited from earlier work.
The next data set concerns the target T1, NKCC1 (Homo sapiens, UniProt P55011).
T1 construct: endogenous in cells; host or cells: native HEK293 cells
T1 sequence (P55011 1-1212): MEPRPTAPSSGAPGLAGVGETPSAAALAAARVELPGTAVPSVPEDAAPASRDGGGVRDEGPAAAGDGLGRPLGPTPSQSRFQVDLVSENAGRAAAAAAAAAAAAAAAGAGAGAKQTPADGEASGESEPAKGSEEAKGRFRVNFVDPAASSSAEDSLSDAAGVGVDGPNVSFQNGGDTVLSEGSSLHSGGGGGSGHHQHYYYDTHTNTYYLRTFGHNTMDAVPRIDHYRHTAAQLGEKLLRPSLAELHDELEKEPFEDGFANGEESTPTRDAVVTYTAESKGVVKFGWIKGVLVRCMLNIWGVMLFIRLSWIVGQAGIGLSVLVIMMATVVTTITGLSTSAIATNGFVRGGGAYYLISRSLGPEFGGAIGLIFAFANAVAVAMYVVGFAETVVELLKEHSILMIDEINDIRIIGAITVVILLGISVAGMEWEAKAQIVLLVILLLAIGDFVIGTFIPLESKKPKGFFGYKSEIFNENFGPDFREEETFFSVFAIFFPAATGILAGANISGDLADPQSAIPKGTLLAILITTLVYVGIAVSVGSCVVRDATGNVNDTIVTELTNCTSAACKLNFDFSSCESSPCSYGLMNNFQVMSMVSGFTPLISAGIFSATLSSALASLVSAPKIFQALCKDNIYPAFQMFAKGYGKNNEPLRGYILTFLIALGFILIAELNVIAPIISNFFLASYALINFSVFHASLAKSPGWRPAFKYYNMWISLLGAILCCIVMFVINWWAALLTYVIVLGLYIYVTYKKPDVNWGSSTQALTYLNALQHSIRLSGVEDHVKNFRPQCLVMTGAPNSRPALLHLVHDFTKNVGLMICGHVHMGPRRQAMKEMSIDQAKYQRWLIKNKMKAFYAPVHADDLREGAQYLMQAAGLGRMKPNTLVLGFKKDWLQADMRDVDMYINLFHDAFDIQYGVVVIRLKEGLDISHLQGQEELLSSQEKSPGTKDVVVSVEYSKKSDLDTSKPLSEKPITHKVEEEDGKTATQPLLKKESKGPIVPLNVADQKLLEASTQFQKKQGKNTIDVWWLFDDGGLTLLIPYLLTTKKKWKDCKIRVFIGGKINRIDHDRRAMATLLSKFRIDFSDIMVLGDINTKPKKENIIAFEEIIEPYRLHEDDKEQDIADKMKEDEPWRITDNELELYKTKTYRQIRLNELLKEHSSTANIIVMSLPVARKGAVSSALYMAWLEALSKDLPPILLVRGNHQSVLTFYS
Kind of data set: NKCC1-mediated K+ influx (83Rb tracer uptake) in native HEK293 cells, hypertonic saline, 100 μM ouabain. The format is cell-based. The conditions noted are these: 2 μM; no drug flux=1000, 20 μM bumetanide flux=0; n=6. An outline of the steps:
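Native cells in slightly hypertonic saline with 100 μM ouabain; 15 min preincubation then 15 min 83Rb uptake (0.25 μCi/mL), scintillation counting normalized to protein. Compounds at 2 μM and 20 μM; flux scaled 1000 (no drug) to 0 (20 μM bumetanide), triplicate dishes.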

The conditions of data set [2]: Fragile X, Tuberous Sclerosis, Down syndrome, or Parkinson Disease; cited from earlier work.
A further data set has as its system NKCC2. The conditions noted are these: in words; cited from earlier work.

SMILES strings stand for the structures.

On to `CCCCNc1cc(C(=O)O)cc(S(N)(=O)=O)c1Oc1ccccc1` [Bumetanide], for which the “effect on K+ influx in NKCC1-KO cells” value with NKCC1-KO HEK293 cells is reported as “no longer affected K^+ influx”. The “brain levels lower than the plasma” value in data set [1] (brain vs plasma) is 200-300 fold. The “blood brain barrier permeability” value in data set [1] (in words) is “quite impermeable”. At NKCC1, the “flux (normalized)” value amounted to 171±21. Besides, the “attenuation of severity of disorders” value in data set [2] was “attenuation”. In addition, the diuretic potency result with NKCC2 is reported as “high diuretic potency”.
